The record followed here is US20090131481A1, “Transcription Factor Modulating Compounds and Methods of Use Thereof” (Paratek Pharmaceuticals, Inc., published 2009).

Like-named read-outs stand apart in the source and are kept apart here.

One data set addresses T1, SoxS (Escherichia coli, UniProt P0A9E2).
T1 sequence (P0A9E2 1-107): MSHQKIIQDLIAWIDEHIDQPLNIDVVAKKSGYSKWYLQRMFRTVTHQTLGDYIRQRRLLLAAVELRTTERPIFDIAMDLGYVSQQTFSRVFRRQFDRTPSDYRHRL
In words: Chemiluminescence-based SoxS-DNA binding assay. Also noted: made in house; species or system E. coli.

The next data set deals with T2, Rob (Escherichia coli, UniProt P0ACI0).
T2 sequence (P0ACI0 1-289): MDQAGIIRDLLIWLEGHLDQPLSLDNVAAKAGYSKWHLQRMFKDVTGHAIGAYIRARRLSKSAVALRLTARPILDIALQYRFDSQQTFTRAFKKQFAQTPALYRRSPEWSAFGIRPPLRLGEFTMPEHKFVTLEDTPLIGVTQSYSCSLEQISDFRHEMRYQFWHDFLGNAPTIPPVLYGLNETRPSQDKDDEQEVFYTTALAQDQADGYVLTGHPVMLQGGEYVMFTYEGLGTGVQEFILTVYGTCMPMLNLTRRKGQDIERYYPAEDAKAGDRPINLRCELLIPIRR
In words: Chemiluminescence-based Rob-DNA binding assay. Particulars: Table 10. Also noted: species or system E. coli.

For a further data set, the target named is T3, SlyA (Escherichia coli, UniProt P0A8W2).
T3 sequence (P0A8W2 1-144): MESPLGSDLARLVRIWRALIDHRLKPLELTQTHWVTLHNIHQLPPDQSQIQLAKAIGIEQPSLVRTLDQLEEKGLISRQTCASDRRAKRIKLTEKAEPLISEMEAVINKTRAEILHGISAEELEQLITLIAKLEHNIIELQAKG
Description: biochemical. In kind it is binding, E. coli.

Data set [1] addresses T4, ExsA (Pseudomonas aeruginosa, UniProt P26993).
T4 construct: made in house
T4 sequence (P26993 1-278): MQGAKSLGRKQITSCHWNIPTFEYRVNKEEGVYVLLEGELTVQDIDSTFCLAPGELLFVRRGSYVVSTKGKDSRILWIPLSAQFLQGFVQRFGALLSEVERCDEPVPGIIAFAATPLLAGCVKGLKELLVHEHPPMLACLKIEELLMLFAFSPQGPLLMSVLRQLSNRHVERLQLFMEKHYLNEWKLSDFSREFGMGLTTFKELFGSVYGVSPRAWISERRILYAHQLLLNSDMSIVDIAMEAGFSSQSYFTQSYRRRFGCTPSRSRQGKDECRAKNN
Description: Chemiluminescence-based ExsA-DNA binding assay. Also noted: species or system P. aeruginosa. Conditions: read-out: ExsA EC50.

For another data set, the target named is T5, Rma (Salmonella typhimurium, UniProt H9L484).
T5 construct: fused on or other part: 6-histidine tag
T5 sequence (H9L484 1-113): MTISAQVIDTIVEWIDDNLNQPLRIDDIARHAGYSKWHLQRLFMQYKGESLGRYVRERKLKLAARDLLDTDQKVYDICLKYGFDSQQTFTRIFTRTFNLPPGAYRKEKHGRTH
In words: Chemiluminescence-based Rma-DNA binding assay. Particulars: Table 10. Also on record: species or system S. typhimurium.

The next data set has as its system uncut plasmid DNA. In words: Qualitative agarose gel DNA intercalation assay. Conditions: 100 ng uncut plasmid DNA, compared with a known DNA intercalator. The data set is classed as binding.
Another data set concerns E. coli UPEC strain C189. In words: Ascending pyelonephritis model of infection (Example 3). Conditions: female CD1 mice, oral dosing at infection and once a day for 4 days, 5-day infection. The data set is classed as in vivo.
For the next data set, the target named is T6, MarA (Escherichia coli, UniProt P0ACH5).
T6 sequence (P0ACH5 1-127): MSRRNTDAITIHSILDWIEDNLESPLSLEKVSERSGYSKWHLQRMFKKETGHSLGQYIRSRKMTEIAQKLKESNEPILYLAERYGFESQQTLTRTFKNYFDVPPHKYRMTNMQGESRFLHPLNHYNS
Description: Chemiluminescence-based MarA-DNA binding assay. Particulars: Table 10. Also on record: species or system E. coli.

In another data set the target is LcrF (VirF) (Yersinia pestis, UniProt P28808). In words: biochemical. In kind it is binding, Y. pseudotuberculosis. Particulars: EC50 for inhibition of LcrF(VirF)-DNA binding.
LcrF (VirF), sequence (P28808 whole entry, looked up): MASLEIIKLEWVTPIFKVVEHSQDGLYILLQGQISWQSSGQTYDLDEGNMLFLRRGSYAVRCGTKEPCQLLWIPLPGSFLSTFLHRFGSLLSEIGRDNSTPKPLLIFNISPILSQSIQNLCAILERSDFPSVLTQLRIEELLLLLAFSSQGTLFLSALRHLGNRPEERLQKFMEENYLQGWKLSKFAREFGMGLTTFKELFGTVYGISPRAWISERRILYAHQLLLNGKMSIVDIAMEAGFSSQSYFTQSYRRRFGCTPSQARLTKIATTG
Data set [2] deals with Y. pseudotuberculosis. In words: microbe, parasite or virus in culture. Conditions: Yersinia pseudotuberculosis, J774, read-out: % Cytotoxicity.
Data set [3] concerns Y. pseudotuberculosis. Particulars: in vivo, sc, 25 mg/kg.
Data set [4] relates to Y. pseudotuberculosis. Conditions: in vivo, sc, 25 mg/kg. This is another data set of the same source.
For a further data set, the system named is P. aeruginosa PA103. In words: Lethal P. aeruginosa pneumonia model in mice. In kind it is in vivo. Conditions: IP 25 mg/kg, 10^6 organisms intranasally, FIG. 5 and 6.
Data set [5] relates to E. coli C189 (clinical cystitis isolate). In words: E. coli ascending pyelonephritis model, compound GM (Example 4). The data set is classed as in vivo. Particulars: CD1 mice.
In data set [6] the target is ExsA (Pseudomonas aeruginosa, UniProt P26993 P26993:1-278). In words: LANCE TR-FRET; same buffer; basis of inhibitor screen. Conditions: tags: 6xHis; label: N-term (5') biotin. In general terms: Time-resolved FRET reads energy transfer from a long-lived donor to a nearby acceptor.
Setting [7] is: dose response analysis (footnote c), read-out: in vitro SoxS activity: concentration necessary to inhibit DNA-protein binding by 50% (EC50).

On to `O=[N+]([O-])c1ccc2nc(-c3ccc(-c4ccccc4)o3)n(O)c2c1` [BQ], for which the EC50 on SoxS (Table 10, read-out: SoxS EC50) was 1 to 4.9 µM; on SoxS (setting [7]), greater than 5 µM; on Rob it was greater than 5 µM; at SlyA it was greater than 5 µM; on ExsA [1] (Table 10) it was greater than 5 µM; on Rma it was greater than 5 µM. This molecule also gave an EC50 on MarA greater than 5 µM. Further, in the data set on uncut plasmid DNA, the “ability to intercalate DNA” value is listed as “not found to intercalate DNA”. The “Efficacy (log10 decrease in the CFU/g kidney tissue)” value with E. coli UPEC strain C189 is on record as “** (exhibited a 1.1-2.0 log decrease in CFU/g)”.
As to `O=C(Nc1ccc(-c2nc3ccc([N+](=O)O)cc3n2O)cc1)c1ccc(-c2cnco2)cc1` [H], on ExsA [1] (Table 7, cell-free system), the EC50 was less than 10 µM. At LcrF (VirF), the EC50 lay within 10 to 25 µM. The activity at 50 µg/mL in the data set with Y. pseudotuberculosis [2] was less than 75%. Also, in the data set with Y. pseudotuberculosis [3], the “percent of the starting weight of the infected mice” value (from here on “percent … of the infected mice”) is given as “approximately 100%” and the “percent survival of infected mice” value was determined as 80%. Besides, in the data set on Y. pseudotuberculosis [4], the “Log Decrease in CFU/g Lung Tissue” value was “*** (key: ***: exhibited a 0-1.0 log decrease in the CFU/g of LcrF in lung tissue; **: exhibited a 1.1-2.0 log decrease in the CFU/g of LcrF in lung tissue; --: exhibited no efficacy)”. In addition, the “Efficacy (log10 decrease in the CFU/g kidney tissue)” value in the data set on E. coli UPEC strain C189 is recorded as “** (exhibited a 1.1-2.0 log decrease in CFU/g)”.
On to `CC(=O)c1ccc(C(=O)Nc2ccc(-c3nc4ccc([N+](=O)O)cc4n3O)cc2)cc1` [F], for which, on ExsA [1] (Table 7, cell-free system), the EC50 fell in the range of 10 to 25 µM. For the same molecule, on LcrF (VirF), the EC50 fell in the range of 10 to 25 µM. The activity at 50 µg/mL with Y. pseudotuberculosis [2] is less than 75%. For the same molecule, in the data set on Y. pseudotuberculosis [3], the “percent … of the infected mice” value is “approximately 100%” and the “percent survival of infected mice” value worked out at 60%. In the data set on Y. pseudotuberculosis [4], the “Log Decrease in CFU/g Lung Tissue” value was “** (key: ***: exhibited a 0-1.0 log decrease in the CFU/g of LcrF in lung tissue; **: exhibited a 1.1-2.0 log decrease in the CFU/g of LcrF in lung tissue; --: exhibited no efficacy)”. The “Efficacy (log10 decrease in the CFU/g kidney tissue)” value with E. coli UPEC strain C189 is listed as “** (exhibited a 1.1-2.0 log decrease in CFU/g)”.
For the molecule `CN(C)c1ccc(C(=O)Nc2ccc(-c3nc4ccc([N+](=O)[O-])cc4n3O)cc2)cc1` [AH], the EC50 on SoxS (Table 10, read-out: SoxS EC50) is less than 0.9 µM; on SoxS (setting [7]) it was less than 0.9 µM; at Rob, 1 to 4.9 µM; at SlyA it was greater than 5 µM; on ExsA [1] (Table 7, cell-free system), greater than 25 µM; at ExsA [1] (Table 10) it was 1 to 4.9 µM. Further, the EC50 on Rma and at MarA was 1 to 4.9 µM in each case.
With `O=C(Nc1ccc(-c2nc3ccc([N+](=O)[O-])cc3n2O)cc1)c1ccc(F)cc1` [C], the EC50 on SoxS (Table 10, read-out: SoxS EC50) is 1 to 4.9 µM; at Rob, 1 to 4.9 µM; at ExsA [1] (Table 7, cell-free system), less than 10 µM; at ExsA [1] (Table 10), 1 to 4.9 µM; at LcrF (VirF) it was 10 to 25 µM; at Rma, 1 to 4.9 µM. The activity at 50 µg/mL in the data set on Y. pseudotuberculosis [2] fell in the range of 75 to 99%.
Take `O=C(Nc1ccc(-c2nc3ccc([N+](=O)[O-])cc3n2O)cc1)c1ccc(-n2ccnc2)cc1` [I]: the “survival at 48 hours post infection” value in the data set on P. aeruginosa PA103 is 50%. In addition, the EC50 on ExsA [1] (Table 7, cell-free system) was 10 to 25 µM; at LcrF (VirF) it was less than 10 µM.
Regarding `O=C(/C=C/c1ccc(F)cc1)Nc1ccc(-c2nc3ccc([N+](=O)[O-])cc3n2O)cc1` [M], the EC50 on ExsA [1] (Table 7, cell-free system) is less than 10 µM; at LcrF (VirF), less than 10 µM. In the data set with Y. pseudotuberculosis [2], the activity at 50 µg/mL was less than 75%. Also, the “percent … of the infected mice” value in the data set on Y. pseudotuberculosis [3] is recorded as “approximately 120%”. Further, the “percent survival of infected mice” value with Y. pseudotuberculosis [3] is on record as 80%. The “Log Decrease in CFU/g Lung Tissue” value in the data set with Y. pseudotuberculosis [4] is given as “** (key: ***: exhibited a 0-1.0 log decrease in the CFU/g of LcrF in lung tissue; **: exhibited a 1.1-2.0 log decrease in the CFU/g of LcrF in lung tissue; --: exhibited no efficacy)”. For the same molecule, the “Efficacy (log10 decrease in the CFU/g kidney tissue)” value in the data set on E. coli UPEC strain C189 is “*** (exhibited a 0-1.0 log decrease in CFU/g)”.
With `Cc1ccc(COn2c(-c3ccccc3)nc3ncccc32)cc1` [GM], the “Difference between vehicle treated and compound dose group (kidneys harvested 5 days post infection)” value in [5] (single dose at the time of infection, 100 mg/kg, p<0.003) was “statistically significant difference”. Moreover, the “Difference between untreated (vehicle) and compound dose groups (kidneys harvested 5 days post infection)” value in data set [5] (subcutaneous at 0, 6, 24, 30, 48, 54, 72 and 96 hours post-infection, 1, 5 and 20 mg/kg, p<0.05) is “statistically significant difference”.

B1: LANCE target DNA (SEQ ID NO. 1) (dsDNA)
DNA 1: CCGATTTAGCAAAACGTGGCATCGGTC
DNA 2: GACCGATGCCACGTTTTGCTAAATCGG
On to B1, for which, in the data set with ExsA [6], the binding result is reported as “binds”.
